For 26 compounds, Ki results are on record in BindingDB's records for doi:10.1016/j.bmc.2010.08.049 (University of Wisconsin-Milwaukee, 2010).

pKi: −log10 of the molar value.

Test [1] has as its target GABA A receptor alpha-4/beta-3/gamma-2 (Homo sapiens, UniProt P48169+P18507+P28472). The test can be described thus: Displacement of [3H]flunitrazepam from human recombinant GABAA alpha-4-beta-3-gamma-2 receptor expressed in HEK cells by liquid scintillation counting.
In test [2] the target is Gamma-aminobutyric acid receptor subunit alpha-6/beta-3/gamma-2 (Homo sapiens, UniProt Q16445+P18507+P28472). Kind of test: Displacement of [3H]flunitrazepam from human recombinant GABAA alpha-6-beta-3-gamma-2 receptor expressed in HEK cells by liquid scintillation counting. A general note: Displacement assays read how much labelled ligand stays bound in the presence of the test substance.

The target in test [3] is T1, GABA-A receptor; alpha-5/beta-3/gamma-2 (Homo sapiens, UniProt P31644+P18507+P28472).
T1 sequence (P31644 whole entry): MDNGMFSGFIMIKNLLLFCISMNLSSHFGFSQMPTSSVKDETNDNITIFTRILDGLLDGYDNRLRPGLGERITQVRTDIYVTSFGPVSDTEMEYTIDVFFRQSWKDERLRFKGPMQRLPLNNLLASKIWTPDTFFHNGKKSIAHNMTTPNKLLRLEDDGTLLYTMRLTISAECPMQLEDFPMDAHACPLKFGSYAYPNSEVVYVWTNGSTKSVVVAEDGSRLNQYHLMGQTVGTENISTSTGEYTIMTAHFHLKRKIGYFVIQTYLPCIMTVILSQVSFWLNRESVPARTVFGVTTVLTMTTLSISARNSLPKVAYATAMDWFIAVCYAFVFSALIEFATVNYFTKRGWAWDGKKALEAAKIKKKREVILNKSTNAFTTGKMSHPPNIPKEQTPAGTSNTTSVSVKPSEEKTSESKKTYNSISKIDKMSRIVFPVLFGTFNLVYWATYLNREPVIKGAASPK
T1 sequence (P18507 whole entry): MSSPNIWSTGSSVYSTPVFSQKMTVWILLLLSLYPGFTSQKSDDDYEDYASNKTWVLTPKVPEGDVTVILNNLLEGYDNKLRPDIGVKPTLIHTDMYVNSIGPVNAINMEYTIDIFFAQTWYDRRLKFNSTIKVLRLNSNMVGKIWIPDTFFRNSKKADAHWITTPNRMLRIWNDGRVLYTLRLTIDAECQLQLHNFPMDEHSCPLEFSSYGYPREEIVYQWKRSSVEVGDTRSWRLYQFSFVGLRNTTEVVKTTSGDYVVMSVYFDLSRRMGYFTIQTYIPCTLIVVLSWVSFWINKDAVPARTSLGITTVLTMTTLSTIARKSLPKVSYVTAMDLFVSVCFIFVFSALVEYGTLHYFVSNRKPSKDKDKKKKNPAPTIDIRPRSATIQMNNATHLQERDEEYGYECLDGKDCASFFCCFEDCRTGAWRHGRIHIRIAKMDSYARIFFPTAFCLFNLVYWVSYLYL
T1 sequence (P28472 whole entry): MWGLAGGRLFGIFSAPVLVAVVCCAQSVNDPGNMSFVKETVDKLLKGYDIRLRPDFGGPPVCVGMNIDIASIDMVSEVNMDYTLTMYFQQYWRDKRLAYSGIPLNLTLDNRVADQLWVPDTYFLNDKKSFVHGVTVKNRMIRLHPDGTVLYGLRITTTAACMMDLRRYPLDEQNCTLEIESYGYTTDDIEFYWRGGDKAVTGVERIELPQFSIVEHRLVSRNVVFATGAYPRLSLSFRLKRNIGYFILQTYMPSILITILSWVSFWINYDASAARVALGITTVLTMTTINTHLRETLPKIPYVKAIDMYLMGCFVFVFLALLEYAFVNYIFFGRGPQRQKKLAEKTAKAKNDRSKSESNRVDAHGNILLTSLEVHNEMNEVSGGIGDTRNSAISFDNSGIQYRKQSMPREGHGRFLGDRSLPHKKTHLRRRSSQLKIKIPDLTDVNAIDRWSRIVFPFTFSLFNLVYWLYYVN
Kind of test: Displacement of [3H]flunitrazepam from human recombinant GABAA alpha-5-beta-3-gamma-2 receptor expressed in HEK cells by liquid scintillation counting.

For test [4], the target named is T2, GABA-A receptor; alpha-2/beta-3/gamma-2 (Homo sapiens, UniProt P47869+P18507+P28472).
T2 sequence (P47869 whole entry): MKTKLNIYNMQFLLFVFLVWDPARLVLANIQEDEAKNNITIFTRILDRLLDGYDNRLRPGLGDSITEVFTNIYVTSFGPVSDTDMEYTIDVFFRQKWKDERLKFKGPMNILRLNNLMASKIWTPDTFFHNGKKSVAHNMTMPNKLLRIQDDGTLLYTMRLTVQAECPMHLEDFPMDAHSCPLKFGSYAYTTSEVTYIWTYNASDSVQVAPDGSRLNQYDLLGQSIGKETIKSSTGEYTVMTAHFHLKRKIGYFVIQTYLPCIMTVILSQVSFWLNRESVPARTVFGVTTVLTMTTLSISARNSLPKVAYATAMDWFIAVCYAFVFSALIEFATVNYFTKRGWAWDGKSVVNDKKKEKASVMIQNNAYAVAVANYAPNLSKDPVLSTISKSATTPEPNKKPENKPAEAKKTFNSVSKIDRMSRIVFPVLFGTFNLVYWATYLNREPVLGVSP
T2 sequence (P18507 whole entry): T1 sequence (P18507 whole entry)
T2 sequence (P28472 whole entry): T1 sequence (P28472 whole entry)
The test can be described thus: Displacement of [3H]flunitrazepam from human recombinant GABAA alpha-2-beta-3-gamma-2 receptor expressed in HEK cells by liquid scintillation counting.

Test [5] has as its target T3, Gamma-aminobutyric acid receptor subunit alpha-3/beta-3/gamma-2 (Homo sapiens, UniProt P34903+P18507+P28472).
T3 sequence (P34903 whole entry): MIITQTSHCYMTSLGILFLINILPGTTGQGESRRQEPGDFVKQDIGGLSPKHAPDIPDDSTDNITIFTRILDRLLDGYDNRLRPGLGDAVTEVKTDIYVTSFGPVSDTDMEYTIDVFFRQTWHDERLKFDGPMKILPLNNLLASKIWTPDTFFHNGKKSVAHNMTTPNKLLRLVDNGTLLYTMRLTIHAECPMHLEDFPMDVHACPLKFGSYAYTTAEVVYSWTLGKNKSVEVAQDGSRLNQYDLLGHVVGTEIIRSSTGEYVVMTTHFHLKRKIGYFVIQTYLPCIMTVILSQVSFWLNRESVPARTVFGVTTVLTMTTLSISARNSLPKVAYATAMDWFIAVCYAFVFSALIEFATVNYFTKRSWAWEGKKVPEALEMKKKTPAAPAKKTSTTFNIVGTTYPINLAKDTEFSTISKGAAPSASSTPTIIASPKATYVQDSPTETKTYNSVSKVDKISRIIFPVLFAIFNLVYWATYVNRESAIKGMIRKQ
T3 sequence (P18507 whole entry): T1 sequence (P18507 whole entry)
T3 sequence (P28472 whole entry): T1 sequence (P28472 whole entry)
Kind of test: Displacement of [3H]flunitrazepam from human recombinant GABAA alpha-3-beta-3-gamma-2 receptor expressed in HEK cells by liquid scintillation counting.

Chain of Gamma-aminobutyric acid receptor subunit alpha-6/beta-3/gamma-2 (Q16445 whole entry, one chain of several): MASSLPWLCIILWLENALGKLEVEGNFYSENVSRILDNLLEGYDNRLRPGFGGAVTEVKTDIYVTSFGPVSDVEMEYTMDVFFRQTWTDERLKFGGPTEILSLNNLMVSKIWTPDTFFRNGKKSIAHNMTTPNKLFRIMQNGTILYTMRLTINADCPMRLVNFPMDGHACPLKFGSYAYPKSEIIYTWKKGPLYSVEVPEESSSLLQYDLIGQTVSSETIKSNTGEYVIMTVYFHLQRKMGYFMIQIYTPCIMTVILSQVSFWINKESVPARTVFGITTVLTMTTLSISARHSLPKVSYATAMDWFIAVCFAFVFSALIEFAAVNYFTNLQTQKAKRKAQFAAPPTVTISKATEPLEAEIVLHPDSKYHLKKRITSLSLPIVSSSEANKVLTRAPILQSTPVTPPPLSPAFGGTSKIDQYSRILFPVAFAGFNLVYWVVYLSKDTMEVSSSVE
Chain of GABA A receptor alpha-4/beta-3/gamma-2 (P48169 whole entry, one chain of several): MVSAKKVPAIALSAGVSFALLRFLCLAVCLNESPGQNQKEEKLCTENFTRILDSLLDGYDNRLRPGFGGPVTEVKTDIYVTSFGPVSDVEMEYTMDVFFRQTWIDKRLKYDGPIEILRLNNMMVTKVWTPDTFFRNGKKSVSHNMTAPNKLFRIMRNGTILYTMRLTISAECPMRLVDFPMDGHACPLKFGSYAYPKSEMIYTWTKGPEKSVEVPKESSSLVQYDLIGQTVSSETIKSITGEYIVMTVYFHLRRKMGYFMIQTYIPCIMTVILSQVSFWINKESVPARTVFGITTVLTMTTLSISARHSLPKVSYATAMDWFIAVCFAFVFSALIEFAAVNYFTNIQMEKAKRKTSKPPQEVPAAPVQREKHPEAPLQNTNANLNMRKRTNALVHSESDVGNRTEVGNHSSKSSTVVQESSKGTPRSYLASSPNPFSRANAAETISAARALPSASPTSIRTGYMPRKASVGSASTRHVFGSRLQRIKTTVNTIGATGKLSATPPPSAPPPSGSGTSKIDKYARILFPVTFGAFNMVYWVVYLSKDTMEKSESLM

The pKi is the negative decadic logarithm of the Ki, by convention in mol/L. In the case of `O=C(OCC(Cl)(Cl)Cl)c1cc2c(cn1)[nH]c1ccccc12` [2,2,2-trichloroethyl 9H-pyrido[3,4-b]indole-3-carboxylate], the pKi in test [1] was 6.00; in test [2] it was 5.70.
As for `CCOc1cc2c(cn1)[nH]c1ccccc12` [3-ethoxy-9H-pyrido[3,4-b]indole], the pKi in test [2] was 6.00.
Turning to `CC(C)(C)OC(=O)c1cc2c(cn1)[nH]c1ccc(C(C)(C)C)cc12` [tert-butyl 6-tert-butyl-9H-pyrido[3,4-b]indole-3-carboxylate], the pKi in test [1] and in test [2] was 6.00 in each case.
Take `CC(C)COc1cc2c3ccccc3nc-2c[nH]1`: in test [2], the pKi is 5.00.
Consider `O=C(OCC(F)(F)F)c1cc2c(cn1)[nH]c1ccc(I)cc12` [2,2,2-trifluoroethyl 6-iodo-9H-pyrido[3,4-b]indole-3-carboxylate], for which the values for the pKi in test [1] and in test [2] were 5.70 and 5.52, respectively.
Turning to `CC(OC(=O)c1cc2c(cn1)[nH]c1ccccc12)c1ccccc1` (stereo not given) [1-phenylethyl 9H-pyrido[3,4-b]indole-3-carboxylate], the pKi was 6.00 in test [1]; 6.00 in test [3]; 5.52 in test [2]; 6.00 in test [4]; 6.00 in test [5].
Consider `O=C(OC(C(F)(F)F)C(F)(F)F)c1cc2c(cn1)[nH]c1ccccc12` [1,1,1,3,3,3-hexafluoropropan-2-yl 9H-pyrido[3,4-b]indole-3-carboxylate], for which the pKi in test [1] is 6.00; in test [2], 5.70.
For `O=C(OCC(F)(F)F)c1cc2c(cn1)[nH]c1ccc(-c3cccs3)cc12` [2,2,2-trifluoroethyl 6-(thiophen-2-yl)-9H-pyrido[3,4-b]indole-3-carboxylate], the pKi in test [1] and in test [2] was 5.70 in each case.
For the compound `CC(C)(C)OC(=O)c1cc2c(cn1)[nH]c1ccccc12`, the pKi in test [1] is 6.00.
On to `CC(C)(C)OC(=O)c1cc2c(cn1)[nH]c1ccc(F)cc12` [tert-butyl 6-fluoro-9H-pyrido[3,4-b]indole-3-carboxylate], for which the pKi in test [1] and in test [2] was 6.00 throughout.
In the case of `O=C(Oc1cc(F)c(F)cc1F)c1cc2c(cn1)[nH]c1ccccc12` [2,4,5-trifluorophenyl 9H-pyrido[3,4-b]indole-3-carboxylate], the pKi in test [1] and in test [2] was 5.52 throughout.
Regarding `O=C(OC(C(F)(F)F)C(F)(F)F)c1cc2c(cn1)[nH]c1ccc(I)cc12` [1,1,1,3,3,3-hexafluoropropan-2-yl 6-iodo-9H-pyrido[3,4-b]indole-3-carboxylate], the pKi in test [1] and in test [2] was 5.52 each time.
With `CCOC(=O)c1cc2c(cn1)[nH]c1ccc(I)cc12` [ethyl 6-iodo-9H-pyrido[3,4-b]indole-3-carboxylate], the pKi in test [1] and in test [2] was 6.00 in each case.
Regarding `c1ccc(COc2cc3c4ccccc4nc-3c[nH]2)cc1`, the pKi in test [3] is 5.00; in test [2], 5.00; in test [4] it was 5.52; in test [5], 5.52.
Take `CCOC(=O)c1cc2c(cn1)[nH]c1ccc(C#C[Si](C)(C)C)cc12` [ethyl 6-((trimethylsilyl)ethynyl)-9H-pyrido[3,4-b]indole-3-carboxylate]: the pKi in test [1] and in test [2] was 5.70 each time.
With `C#Cc1ccc2[nH]c3cnc(C(=O)OCC(F)(F)F)cc3c2c1` [2,2,2-trifluoroethyl 6-ethynyl-9H-pyrido[3,4-b]indole-3-carboxylate], the pKi in test [1] and in test [2] was 5.70 each time.
On to `CC(C)(C)OC(=O)c1cc2c(cn1)[nH]c1ccc(-c3ccco3)cc12` [tert-butyl 6-(furan-2-yl)-9H-pyrido[3,4-b]indole-3-carboxylate], for which, in test [2], the pKi is 5.30.
Turning to `CC(C)(C)OC(=O)c1cc2c(cn1)[nH]c1ccc(C#CC#Cc3ccc4[nH]c5cnc(C(=O)OC(C)(C)C)cc5c4c3)cc12` [1,4-Bis(9H-beta-carboline-3-carboxylic acid tert-butyl ester)buta-1,3-diyne], the pKi in test [1], in test [3] and in test [2] was 5.30 each time.
Regarding `O=C(OCC(F)(F)F)c1cc2c(cn1)[nH]c1ccc(-c3ccco3)cc12` [2,2,2-trifluoroethyl 6-(furan-2-yl)-9H-pyrido[3,4-b]indole-3-carboxylate], the pKi is 5.52 in test [1] and 5.70 in test [2].
Taken in the same sequence, the figures for `O=C(OCC(F)(F)F)c1cc2c(cn1)[nH]c1ccc(-c3ccccc3)cc12` [2,2,2-trifluoroethyl 6-phenyl-9H-pyrido[3,4-b]indole-3-carboxylate] were 5.70 and 5.70.
As for `C#Cc1ccc2c(c1)c1cc(C(=O)OC(C)(C)C)ncc1n2C(=O)OC(C)(C)C` [di-tert-butyl 6-ethynyl-9H-pyrido[3,4-b]indole-3,9-dicarboxylate], the pKi in test [3] and in test [2] was 5.30 in each case.
For `CC(C)(C)OC(=O)c1cc2c(cn1)[nH]c1ccc(-c3ccccc3)cc12` [tert-butyl 6-phenyl-9H-pyrido[3,4-b]indole-3-carboxylate], the pKi in test [2] was 5.30.
Same read-out and setting: to `CC(C)(C)OC(=O)c1cc2c(cn1)[nH]c1ccc(C#C[Si](C)(C)C)cc12` [6-Trimethylsilanylethynyl-9H-beta-carboline-3-carboxylic acid t-butyl ester] belongs 6.00.
With `CC/C=C/C=C/Oc1cc2c(cn1)[nH]c1ccccc12` [3-(hexa-1,3-dienyloxy)-9H-pyrido[3,4-b]indole], the pKi in test [3] and in test [2] was 5.00 in each case.
For `CCCOc1cc2c(cn1)[nH]c1ccccc12` [3-propoxy-9H-pyrido[3,4-b]indole], the pKi in test [1] was 6.00.
Regarding `CC(C)(C)OC(=O)c1cc2c(cn1)[nH]c1ccc(-c3cccs3)cc12` [tert-butyl 6-(thiophen-2-yl)-9H-pyrido[3,4-b]indole-3-carboxylate], the pKi in test [2] is 5.30.
